Measured values: ChEMBL document CHEMBL5500384, “New synergistic benzoquinone scaffolds as inhibitors of mycobacterial cytochrome bc1 complex to treat multi-drug resistant tuberculosis” (Eur J Med Chem, 2024)
Active and inactive are the calls of the source. The rule behind the calls is not given here.

Tests used:
[1] = tested on: Mycolicibacterium smegmatis; experiment: Antibacterial activity against Mycobacterium smegmatis ATCC 14468 assessed as log2 fold change in DL-gamma-Amino-beta-hydroxybutyric acid metabolite level by mass spectrometry analysis; format: functional
[2] = Renal toxicity in Albino mouse assessed as change in distal convoluted tubules at 50 to 2000 mg/kg, po measured after 14 days; format: organism-based; settings: in vivo, 336 h, dose 50-2000 mg/kg, time 14 day
[3] = Hepatotoxicity in Albino mouse assessed as change in hepatic artery at 50 to 2000 mg/kg, po measured after 14 days; format: toxicity, organism-based, Liver; settings: in vivo, 336 h, dose 50-2000 mg/kg, time 14 day
[4] = tested on: Mycolicibacterium smegmatis; experiment: Antibacterial activity against Mycobacterium smegmatis ATCC 14468 assessed as log2 fold change in dihydroorotate dehydrogenase expression at 3 ug/ml incubated for 12 hrs by mass spectrometric analysis; format: functional; settings: dose 3 µg/ml
[5] = tested on: Mycolicibacterium smegmatis; experiment: Antibacterial activity against Mycobacterium smegmatis ATCC 14468 assessed as log2 fold change in NADH-quinone oxidoreductase subunit C expression at 3 ug/ml incubated for 12 hrs by mass spectrometric analysis; format: functional; settings: dose 3 µg/ml
[6] = tested on: Mycolicibacterium smegmatis; experiment: Antibacterial activity against Mycobacterium smegmatis ATCC 14468 assessed as log2 fold change in 24-methylenecholesterol metabolite level by mass spectrometry analysis; format: functional
[7] = tested on: Mycolicibacterium smegmatis; experiment: Antibacterial activity against Mycobacterium smegmatis ATCC 14468 assessed as log2 fold change in l-Glutamic acid metabolite level by mass spectrometry analysis; format: functional
[8] = tested on: Mycolicibacterium smegmatis; experiment: Antibacterial activity against Mycobacterium smegmatis ATCC 14468 assessed as log2 fold change in l-Glutathione oxidized metabolite level by mass spectrometry analysis; format: functional
[9] = Pulmonary toxicity in Albino mouse assessed as change in squamous pneumocytes at 50 to 2000 mg/kg, po measured after 14 days; format: organism-based; settings: in vivo, 336 h, dose 50-2000 mg/kg, time 14 day
[10] = tested on: Mycolicibacterium smegmatis; experiment: Antibacterial activity against Mycobacterium smegmatis ATCC 14468 assessed as reduction in bacterial growth at 3 ug/ml measured every 6 hrs by spectrometry analysis; format: functional, organism-based; settings: dose 3.0 µg/ml
[11] = Acute toxicity in Albino mouse assessed as change in ALP level at 50 to 2000 mg/kg, po measured after 14 days (reference value: 28 IU/L); format: organism-based; settings: in vivo, 336 h, dose 50-2000 mg/kg, time 14 day
[12] = tested on: Mycolicibacterium smegmatis; experiment: Antibacterial activity against Mycobacterium smegmatis ATCC 14468 assessed as log2 fold change in cytochrome bd-type quinol oxidase, subunit 1 expression at 3 ug/ml incubated for 12 hrs by mass spectrometric analysis; format: functional; settings: dose 3 µg/ml
[13] = Acute toxicity in Albino mouse assessed as change in serum creatine level at 50 to 2000 mg/kg, po measured after 14 days (reference value: 0.9 mg/dl); format: organism-based; settings: in vivo, 336 h, dose 50-2000 mg/kg, time 14 day
[14] = Acute toxicity in Albino mouse assessed as change in monocytes at 50 to 2000 mg/kg, po measured after 14 days (reference value: 1%); format: organism-based; settings: in vivo, 336 h, dose 50-2000 mg/kg, time 14 day
[15] = tested on: Mycolicibacterium smegmatis; experiment: Antibacterial activity against Mycobacterium smegmatis ATCC 14468 assessed as log2 fold change in membrane transport protein expression at 3 ug/ml incubated for 12 hrs by mass spectrometric analysis; format: functional; settings: dose 3 µg/ml
[16] = Acute toxicity in Albino mouse assessed as change in LDH level at 50 to 2000 mg/kg, po measured after 14 days (reference value: 1052 IU/L); format: organism-based; settings: in vivo, 336 h, dose 50-2000 mg/kg, time 14 day
[17] = tested on: Mycolicibacterium smegmatis; experiment: Antibacterial activity against Mycobacterium smegmatis ATCC 14468 assessed as log2 fold change in histidine kinase expression at 3 ug/ml incubated for 12 hrs by mass spectrometric analysis; format: functional; settings: dose 3 µg/ml
[18] = tested on: Mycolicibacterium smegmatis; experiment: Antibacterial activity against Mycobacterium smegmatis ATCC 14468 assessed as log2 fold change in DppB expression at 3 ug/ml incubated for 12 hrs by mass spectrometric analysis; format: functional; settings: dose 3 µg/ml
[19] = Cytotoxicity against african green monkey Vero cells assessed as cell viability at 50 ug/ml by MTT assay; format: toxicity, cell-based; settings: chlorocebus sabaeus, at 50 µg/mL, read-out: Activity
[20] = tested on: Mycolicibacterium smegmatis; experiment: Antibacterial activity against Mycobacterium smegmatis ATCC 14468 assessed as log2 fold change in ABC transporter ATP binding protein expression at 3 ug/ml incubated for 12 hrs by mass spectrometric analysis; format: functional; settings: dose 3 µg/ml
[21] = tested on: Mycolicibacterium smegmatis; experiment: Antibacterial activity against Mycobacterium smegmatis ATCC 14468 assessed as log2 fold change in TrkA expression at 3 ug/ml incubated for 12 hrs by mass spectrometric analysis; format: functional; settings: dose 3 µg/ml
[22] = tested on: Mycolicibacterium smegmatis; experiment: Antibacterial activity against Mycobacterium smegmatis ATCC 14468 assessed as reduction in bacterial growth at 12 ug/ml incubated for 48 hrs by spectrometry analysis; format: functional; design: scale not given: the % may be the effect or the level left; settings: dose 12 µg/ml
[23] = tested on: Mycolicibacterium smegmatis; experiment: Antibacterial activity against Mycobacterium smegmatis ATCC 14468 assessed as log2 fold change in beta-alanine metabolite level by mass spectrometry analysis; format: functional
[24] = Hepatotoxicity in Albino mouse assessed as change in central vein at 50 to 2000 mg/kg, po measured after 14 days; format: toxicity, organism-based; settings: in vivo, 336 h, dose 50-2000 mg/kg, time 14 day
[25] = tested on: Mycolicibacterium smegmatis; experiment: Antibacterial activity against Mycobacterium smegmatis ATCC 14468 assessed as log2 fold change in PknH_C domain-containing protein expression at 3 ug/ml incubated for 12 hrs by mass spectrometric analysis; format: functional; settings: dose 3 µg/ml
[26] = Cytotoxicity against african green monkey Vero cells assessed as cell viability at 3.125 ug/ml by MTT assay; format: toxicity, cell-based; settings: chlorocebus sabaeus, at 3.125 µg/mL, read-out: Activity
[27] = Pulmonary toxicity in Albino mouse assessed as change in alveoli structure at 50 to 2000 mg/kg, po measured after 14 days; format: organism-based; settings: in vivo, 336 h, dose 50-2000 mg/kg, time 14 day
[28] = Renal toxicity in Albino mouse assessed as change in Bowman's capsule at 50 to 2000 mg/kg, po measured after 14 days; format: organism-based; settings: in vivo, 336 h, dose 50-2000 mg/kg, time 14 day
[29] = Acute toxicity in Albino mouse assessed as change in hemoglobin level at 50 to 2000 mg/kg, po measured after 14 days (reference value: 12.8 g/dl); format: organism-based; settings: in vivo, 336 h, dose 50-2000 mg/kg, time 14 day
[30] = Pulmonary toxicity in Albino mouse assessed as change in alveolar sacs at 50 to 2000 mg/kg, po measured after 14 days; format: organism-based; settings: in vivo, 336 h, dose 50-2000 mg/kg, time 14 day
[31] = tested on: Mycolicibacterium smegmatis; experiment: Antibacterial activity against Mycobacterium smegmatis ATCC 14468 assessed as log2 fold change in MscS expression at 3 ug/ml incubated for 12 hrs by mass spectrometric analysis; format: functional; settings: dose 3 µg/ml
[32] = tested on: Mycolicibacterium smegmatis; experiment: Antibacterial activity against Mycobacterium smegmatis ATCC 14468 assessed as log2 fold change in citrate transporter expression at 3 ug/ml incubated for 12 hrs by mass spectrometric analysis; format: functional; settings: dose 3 µg/ml
[33] = Pulmonary toxicity in Albino mouse assessed as appearance of cilia at 50 to 2000 mg/kg, po measured after 14 days; format: organism-based; settings: in vivo, 336 h, dose 50-2000 mg/kg, time 14 day
[34] = Pulmonary toxicity in Albino mouse assessed as change in bronchi structure at 50 to 2000 mg/kg, po measured after 14 days; format: organism-based; settings: in vivo, 336 h, dose 50-2000 mg/kg, time 14 day
[35] = Hepatotoxicity in Albino mouse assessed as change in portal tracks at 50 to 2000 mg/kg, po measured after 14 days; format: toxicity, organism-based; settings: in vivo, 336 h, dose 50-2000 mg/kg, time 14 day
[36] = Renal toxicity in Albino mouse assessed as change in proximal convoluted tubules at 50 to 2000 mg/kg, po measured after 14 days; format: organism-based; settings: in vivo, 336 h, dose 50-2000 mg/kg, time 14 day
[37] = tested on: Mycolicibacterium smegmatis; experiment: Antibacterial activity against Mycobacterium smegmatis ATCC 14468 assessed as log2 fold change in MmpL protein expression at 3 ug/ml incubated for 12 hrs by mass spectrometric analysis; format: functional; settings: dose 3 µg/ml
[38] = tested on: Mycolicibacterium smegmatis; experiment: Antibacterial activity against Mycobacterium smegmatis ATCC 14468 assessed as log2 fold change in TnpC protein expression at 3 ug/ml incubated for 12 hrs by mass spectrometric analysis; format: functional; settings: dose 3 µg/ml

| SMILES | log2FC [1] | Activity [2] | Activity [3] | log2FC [4] | log2FC [5] | log2FC [6] | log2FC [7] | log2FC [8] | Activity [9] | Activity [10] | Activity [11] | log2FC [12] | Activity [13] | Activity [14] | log2FC [15] | Activity [16] | log2FC [17] | log2FC [18] | viability at 50 ug/ml [19] | log2FC [20] | also measured |
| --- | --- | --- | --- | --- | --- | --- | --- | --- | --- | --- | --- | --- | --- | --- | --- | --- | --- | --- | --- | --- | --- |
| COc1ccc(C2C(Cl)C(=O)N2C2=C(Cl)C(=O)c3ccccc3C2=O)cc1 (centres undefined) | -2.72 | Non-Toxic | Non-Toxic | -1.89 | -1.9 | 1.74 | -1.49 | -1.04 | Non-Toxic | inactive | 44 IU/L | 5.6 | 0.8 mg/dL | 1% | -6.64 | 842 IU/L | -6.64 | -6.64 | 8.7% | -1.98 | log2FC [21]: -6.64; Activity [22]: 80%; log2FC [23]: -2.47; Activity [24]: Non-Toxic; log2FC [25]: -6.64; viability at 3.125 ug/ml [26]: 100%; Activity [27]: Non-Toxic; Activity [28]: Non-Toxic; Activity [29]: 13.9 g/dL; Activity [30]: Non-Toxic; log2FC [31]: -2.45; log2FC [32]: -1.76; Activity [33]: Non-Toxic; Activity [34]: Non-Toxic; Activity [35]: Non-Toxic; Activity [36]: Non-Toxic; log2FC [37]: -1.45; log2FC [38]: -6.64 |
| CN(C)c1ccc(C2C(Cl)C(=O)N2C2=C(Cl)C(=O)c3ccccc3C2=O)cc1 (centres undefined) | -1.1 | Non-Toxic | Non-Toxic | -1.47 | -1.41 | 0.69 | -0.85 | -1.8 | Non-Toxic | inactive | 52 IU/L | 5.66 | 0.7 mg/dL | 1% | -6.64 | 756 IU/L | -6.64 | -6.64 | 25.4% | -6.64 | log2FC [21]: -6.64; Activity [22]: 80%; log2FC [23]: -1.29; Activity [24]: Non-Toxic; log2FC [25]: -6.64; viability at 3.125 ug/ml [26]: 100%; Activity [27]: Non-Toxic; Activity [28]: Non-Toxic; Activity [29]: 14.3 g/dL; Activity [30]: Non-Toxic; log2FC [31]: -3.03; log2FC [32]: -1.02; Activity [33]: Non-Toxic; Activity [34]: Non-Toxic; Activity [35]: Non-Toxic; Activity [36]: Non-Toxic; log2FC [37]: -6.64; log2FC [38]: -6.64 |
| O=C1C(Cl)=C(Cl)C(=O)c2ccccc21 [Dichlon] | -2.75 | Non-Toxic | Non-Toxic | -1.92 | -2.08 | 2.01 | -1.59 | -2.01 | Non-Toxic | inactive | 33 IU/L | 5.6 | 0.8 mg/dL | 1% | -1.79 | 1030 IU/L | -6.64 | -6.64 | 36.1% | -2.17 | log2FC [21]: -6.64; Activity [22]: 80%; log2FC [23]: -1; Activity [24]: Non-Toxic; log2FC [25]: -6.64; viability at 3.125 ug/ml [26]: 100%; Activity [27]: Non-Toxic; Activity [28]: Non-Toxic; Activity [29]: 14.3 g/dL; Activity [30]: Non-Toxic; log2FC [31]: -4.39; log2FC [32]: -3.36; Activity [33]: Non-Toxic; Activity [34]: Non-Toxic; Activity [35]: Non-Toxic; Activity [36]: Non-Toxic; log2FC [37]: -6.64; log2FC [38]: -2.19 |
